Bounds are passed on as bounds.

Assay [1] addresses DGKζ (Homo sapiens (Human), UniProt Q13574). Nature of the assay: Biochemical DGK IC50 assay, DGKζ ADP-Glo assay. The conditions noted are these: 0.5 nM enzyme, 140 μM ATP, 80 μM DAG; read-out: DGKζ ADP-Glo assay IC50. The procedure, abridged:
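ADP formation measured by ADP-Glo luminescence, with test compounds at final 1.55–10000 nM or 23.3–150000 nM. Enzyme: purified full-length human DGKζ from Sf9 insect cells; substrate: DAG/PS micelles in 25 mM HEPES pH 7.0, 0.5 mM EDTA, octyl glucoside.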

The target of assay [2] is DGKα (Homo sapiens (Human), UniProt P23743). Nature of the assay: Biochemical DGK IC50 assay, DGKα ADP-Glo assay. The note with it: 7.5 nM enzyme, 140 μM ATP, 80 μM DAG. The procedure, abridged: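 Compounds at final 1.55˜10000 nM or 23.3˜150000 nM were tested against full-length DGKα. Substrate was lipid micelles of DAG and PS resuspended in 25 mM HEPES pH 7.0 with 0.5 mM EDTA and 160 mM octyl β-D-glucopyranoside. ADP formed was detected by ADP-Glo.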
DGKα, sequence (P23743 whole entry): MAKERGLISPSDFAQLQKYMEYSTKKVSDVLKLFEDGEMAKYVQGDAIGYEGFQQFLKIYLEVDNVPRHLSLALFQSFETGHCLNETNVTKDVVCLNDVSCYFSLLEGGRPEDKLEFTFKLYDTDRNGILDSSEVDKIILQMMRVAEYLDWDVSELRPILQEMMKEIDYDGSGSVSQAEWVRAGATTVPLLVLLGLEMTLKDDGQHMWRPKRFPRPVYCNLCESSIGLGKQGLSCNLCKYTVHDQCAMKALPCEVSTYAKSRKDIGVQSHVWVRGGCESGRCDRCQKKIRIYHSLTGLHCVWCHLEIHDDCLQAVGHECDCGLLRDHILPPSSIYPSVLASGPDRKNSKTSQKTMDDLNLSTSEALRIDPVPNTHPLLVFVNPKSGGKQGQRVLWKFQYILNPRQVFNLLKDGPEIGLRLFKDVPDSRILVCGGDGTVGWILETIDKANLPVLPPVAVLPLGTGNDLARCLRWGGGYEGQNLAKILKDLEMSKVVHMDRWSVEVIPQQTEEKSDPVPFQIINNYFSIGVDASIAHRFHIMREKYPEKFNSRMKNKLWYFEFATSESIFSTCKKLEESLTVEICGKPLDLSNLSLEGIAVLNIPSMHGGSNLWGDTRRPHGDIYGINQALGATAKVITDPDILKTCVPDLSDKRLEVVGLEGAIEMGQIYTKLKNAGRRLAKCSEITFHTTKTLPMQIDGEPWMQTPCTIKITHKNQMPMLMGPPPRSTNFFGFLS
(In general: ADP-Glo first removes unused ATP, then detects ADP through luciferase.)

DGKζ, sequence (Q13574 other isoform, or with tags, fused parts or gaps): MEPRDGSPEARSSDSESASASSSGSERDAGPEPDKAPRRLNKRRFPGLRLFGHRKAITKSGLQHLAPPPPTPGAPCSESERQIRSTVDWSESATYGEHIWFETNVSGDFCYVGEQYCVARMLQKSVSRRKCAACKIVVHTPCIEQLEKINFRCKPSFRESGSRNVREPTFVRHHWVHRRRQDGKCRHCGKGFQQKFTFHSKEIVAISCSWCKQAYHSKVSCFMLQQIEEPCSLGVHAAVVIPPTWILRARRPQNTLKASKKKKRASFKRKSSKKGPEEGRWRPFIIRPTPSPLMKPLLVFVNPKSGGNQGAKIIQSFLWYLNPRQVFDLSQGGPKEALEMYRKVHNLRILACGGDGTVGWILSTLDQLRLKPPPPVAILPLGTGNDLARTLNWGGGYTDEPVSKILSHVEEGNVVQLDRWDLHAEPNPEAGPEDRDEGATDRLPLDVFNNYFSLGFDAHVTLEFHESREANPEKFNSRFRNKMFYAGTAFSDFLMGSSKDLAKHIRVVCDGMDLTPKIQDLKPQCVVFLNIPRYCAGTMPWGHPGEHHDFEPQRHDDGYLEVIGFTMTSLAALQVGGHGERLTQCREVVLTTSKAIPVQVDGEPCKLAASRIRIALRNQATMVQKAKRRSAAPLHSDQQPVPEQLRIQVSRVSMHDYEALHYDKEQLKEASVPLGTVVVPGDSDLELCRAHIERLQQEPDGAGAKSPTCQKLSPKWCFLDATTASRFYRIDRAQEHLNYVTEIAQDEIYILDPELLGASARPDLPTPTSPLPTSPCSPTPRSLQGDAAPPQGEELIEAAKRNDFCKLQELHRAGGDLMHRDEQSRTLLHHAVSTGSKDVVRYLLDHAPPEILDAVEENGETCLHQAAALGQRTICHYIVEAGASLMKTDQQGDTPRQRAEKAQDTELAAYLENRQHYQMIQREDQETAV

With `C[C@H](c1ccc2nccnc2c1)N1CCN(c2cc(=O)n(C)c3cn(CC#N)nc23)CC1C(N)=O` (single isomer, unassigned) [Compound A198b], the IC50 in assay [1] and in assay [2] was greater than 10000 nM throughout.
As for `CC(C1CCCCC1)N1C[C@H](C)N(c2cc(=O)n(C)c3cn(CC#N)nc23)C[C@H]1C` (stereo partly shown) [Compound A223], the IC50 in assay [1] and in assay [2] was greater than 10000 nM throughout.
For the compound `COc1ccc(C(C)N2C[C@H](C)N(c3cc(=O)n(C)c4cn(CC#N)nc34)C[C@H]2C)cc1` (stereo partly shown) [Compound A38], the IC50 in assay [1] was 610 nM; in assay [2], 899 nM.
The matching figures for `CC(c1ccc2nccnc2c1)N1C[C@H](C)N(c2c(F)c(=O)n(C)c3cn(CC#N)nc23)C[C@H]1C` (stereo partly drawn) [Compound A168, 2-(7-((2S,5R)-2,5-dimethyl-4-(1-(quinoxalin-6-yl)ethyl)piperazin-1-yl)-6-fluoro-4-methyl-5-oxo-4,5-dihydro-2H-pyrazolo[4,3-b]pyridin-2-yl)acetonitrile]: 28 nM and 6080 nM.
The matching figures for `CC[C@H]1CN(C(C)c2ccc(Cl)cn2)[C@H](CC)CN1c1cc(=O)n(C)c2cn(CC#N)nc12` (single isomer, unassigned) [Compound A360a]: 3800 nM and 142 nM.
As to `CC[C@H]1CN(C(C)c2ccc(Cl)cn2)[C@H](CC)CN1c1cc(=O)n(C)c2cn(CC#N)nc12` (single isomer, unassigned) [Compound A360b], the IC50 was 134 nM in assay [1] and 2.7 nM in assay [2].
`CC[C@@H]1CN(c2c(C#N)c(=O)n(CC#N)c3cn(CC#N)nc23)[C@@H](C)CN1C(C)c1ccc2nccnc2c1` (stereo partly drawn) [Compound A189, 2,2′-(6-cyano-7-((2S,5R)-5-ethyl-2-methyl-4-(1-(quinoxalin-6-yl)ethyl)piperazin-1-yl)-5-oxo-2H-pyrazolo[4,3-b]pyridine-2,4(5H)-diyl)diacetonitrile]: the IC50 in assay [1] is 3100 nM; in assay [2] it was greater than 10000 nM.
The matching figures for `CC[C@H]1CN(C(C)c2c(F)cc(F)cc2OC)[C@H](CC)CN1c1cc(=O)n(C)c2cn(CC#N)nc12` (single isomer, unassigned) [Compound A201b]: greater than 10000 nM and greater than 10000 nM.
On to `CC[C@H]1CN(C(C)c2ccc(C(F)(F)F)cc2F)[C@H](CC)CN1c1cc(=O)n(C)c2cn(CC#N)nc12` (single isomer, unassigned) [Compound A69b], for which the 50% inhibitory concentration (IC50) was 4900 nM in assay [1] and 3000 nM in assay [2].
Turning to `CC(c1ccc2nccnc2c1)N1C[C@H](C)N(c2cc(=O)n(C)c3cn(C(CC#N)C4CCCC4)nc23)C[C@H]1C` (stereo partly drawn) [Compound A20, 3-cyclopentyl-3-(7-((2S,5R)-2,5-dimethyl-4-(1-(quinoxalin-6-yl)ethyl)piperazin-1-yl)-4-methyl-5-oxo-4,5-dihydro-2H-pyrazolo[4,3-b]pyridin-2-yl)propanenitrile], the concentration for half-maximal inhibition (IC50) in assay [1] is 39000 nM; in assay [2], greater than 150000 nM.
The matching figures for `C=C(C)n1cc2c(n1)c(N1C[C@@H](C)N(C(C)c3ccc4nccnc4c3)C[C@@H]1C)cc(=O)n2C` (stereo partly drawn) [Compound A24, 7-((2S,5R)-2,5-dimethyl-4-(1-(quinoxalin-6-yl)ethyl)piperazin-1-yl)-4-methyl-2-(prop-1-en-2-yl)-2,4-dihydro-5H-pyrazolo[4,3-b]pyridin-5-one]: 4300 nM and 150 nM.
As for `CC[C@H]1CN(C(C)c2ccc(C(N)=O)cc2)[C@H](CC)CN1c1cc(=O)n(C)c2cn(CC#N)nc12` (single isomer, unassigned) [Compound A120b], the IC50 in assay [1] was greater than 10000 nM; in assay [2], 2260 nM.
Turning to `CC#CCn1cc2c(n1)c(N1C[C@@H](C)N([C@@H](C)c3ccc4nccnc4c3)C[C@@H]1C)cc(=O)n2C` [Compound A22b, 2-(but-2-yn-1-yl)-7-((2S,5R)-2,5-dimethyl-4-((S)-1-(quinoxalin-6-yl)ethyl)piperazin-1-yl)-4-methyl-2,4-dihydro-5H-pyrazolo[4,3-b]pyridin-5-one], the values for the IC50 in assay [1] and in assay [2] were 72 nM and 190 nM, respectively.
The matching figures for `CC[C@H]1CN(C(C)c2ccc(OCC3CCOC3)cc2)[C@H](CC)CN1c1cc(=O)n(C)c2cn(CC#N)nc12` (stereo partly shown) [Compound A376]: 602 nM and 206 nM.
`Cc1c2c(nn1CC#N)c(N1C[C@@H](C)N(C(C)c3ccc(F)cc3C(F)(F)F)C[C@@H]1C)nc(=O)n2C` (single isomer, unassigned) [Compound A267a]: the IC50 in assay [1] and in assay [2] was greater than 10000 nM in each case.
Take `CC[C@H]1CN(C(C)c2ccc(C(F)(F)F)cc2F)[C@H](CC)CN1c1cc(=O)n(C)c2cn(CC#N)nc12` (single isomer, unassigned) [Compound A69a]: the concentration for half-maximal inhibition (IC50) turned out to be 25 nM in assay [1] and 130 nM in assay [2].
Consider `CC[C@H]1CN(C(C)c2c(C)cnn2CC)[C@H](CC)CN1c1cc(=O)n(C)c2cn(CC#N)nc12` (single isomer, unassigned) [Compound A227b], for which the IC50 in assay [1] is 691 nM; in assay [2] it was greater than 10000 nM.
The matching figures for `CC[C@H]1CN(C(C)c2ccc(C)c(C)c2)[C@H](CC)CN1c1cc(=O)n(C)c2cn(CC#N)nc12` (stereo partly shown) [Compound A384]: 99 nM and 1750 nM.
As to `CC[C@H]1CN([C@@H](C)c2ccc3nccnc3c2)[C@H](CC)CN1c1cc(=O)[nH]c2cn(CC#N)nc12` [Compound A129, 2-(7-((2S,5R)-2,5-diethyl-4-((S)-1-(quinoxalin-6-yl)ethyl)piperazin-1-yl)-5-oxo-4,5-dihydro-2H-pyrazolo[4,3-b]pyridin-2-yl)acetonitrile], the IC50 is 33 nM in assay [1] and 2350 nM in assay [2].
The matching figures for `CC[C@H]1CN(C(C)c2ccc3cccnc3n2)[C@H](CC)CN1c1cc(=O)n(C)c2cn(CC#N)nc12` (stereo partly drawn) [Compound A63, 2-(7-((2S,5R)-4-(1-(1,8-naphthyridin-2-yl)ethyl)-2,5-diethylpiperazin-1-yl)-4-methyl-5-oxo-4,5-dihydro-2H-pyrazolo[4,3-b]pyridin-2-yl)acetonitrile]: 43 nM and 83 nM.
`CC[C@H]1CN(C(C)c2cccc(=O)n2CC)[C@H](CC)CN1c1cc(=O)n(C)c2cn(CC#N)nc12` (stereo partly shown) [Compound A207]: the values for the 50% inhibitory concentration (IC50) in assay [1] and in assay [2] were 4050 nM and greater than 10000 nM, respectively.
The matching figures for `CCC(c1ccc2nccnc2c1)N1C[C@H](C)N(c2cc(=O)n(C)c3cn(CC#N)nc23)C[C@H]1C` (stereo partly shown) [Compound A255]: 194 nM and greater than 10000 nM.
On to `CC[C@H]1CN(C(C)c2cccnc2C(F)(F)F)[C@H](CC)CN1c1cc(=O)n(C)c2cn(CC#N)nc12` (stereo partly shown) [Compound A217], for which the concentration for half-maximal inhibition (IC50) in assay [1] is 378 nM; in assay [2] it was greater than 10000 nM.
In the case of `CC(C1CCOCC1)N1C[C@H](C)N(c2cc(=O)n(C)c3cn(CC#N)nc23)C[C@H]1C` (stereo partly shown) [Compound A242], the IC50 in assay [1] and in assay [2] was greater than 10000 nM in each case.
Regarding `CC(c1ccc(Cl)cc1C(F)(F)F)N1C[C@H](C)N(c2cc(=O)n(C)c3cn(CC#N)nc23)C[C@H]1C` (stereo partly shown) [Compound A251], the IC50 in assay [1] was 3270 nM; in assay [2], greater than 10000 nM.
The matching figures for `CC[C@H]1CN(C(C)c2cnc(C(F)(F)F)n2CC)[C@H](CC)CN1c1cc(=O)n(C)c2cn(CC#N)nc12` (stereo partly shown) [Compound A239]: 391 nM and greater than 10000 nM.

The IC50 is the concentration that gives 50% inhibition.
